Values of other authors as cited in article PMC8086892 (Peptide science (Hoboken, N.J.), 2020).

Tests used:
[1] = ref Orivel et al. [27]
[2] = ref Orivel et al. [27]; remark: listed apart in the source

Ponericin L2
Hemolytic activity [1]: no detectable hemolytic activity
Antimicrobial activity [2]: broad spectrum antimicrobial activity
